Literature values, collected in patent publication US20010008638A1, “N[…] LEAST ONE […] AT LEAST ONE ANTI-ESTROGEN COMPOUND IN A TIME-RELEASE DOSAGE FORM” (priority 1999, published 2001).

Conditions: fold more potent than testosterone

C[C@]12CCC(=O)C[C@@H]1CC[C@@H]1[C@@H]2CC[C@]2(C)[C@@H](O)CC[C@@H]12 [DHT, dihydrotestosterone]
potency relative to testosterone: ~10 times
